According to patent US10828301B2, “2,4-pyrimidinediamine compounds and their uses” (Rigel Pharmaceuticals, Inc, priority 2002, dated 2020):

Tests used:
[1] = test system: cultured human mast cells (CHMC); experiment: CHMC low cell density ionomycin activation: tryptase assay; assay type: cell-based; conditions: read-out: CHMC Ionomycin Tryptase
[2] = test system: cultured human mast cells (CHMC); experiment: CHMC low cell density IgE activation: tryptase and LTC4 assays; assay type: cell-based; conditions: read-out: CHMC anti-IgE Tryptase
Procedure, shortened: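 Degranulation measured after 30 min anti-IgE challenge at 37° C of CHMC plated at 1000-1500 cells/well following 1 h preincubation. Readouts: LTC4 by ELISA on donor-specific diluted supernatants, and tryptase activity from a 30 min room-temperature substrate reaction.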

[3] = Homo sapiens, Mast cell, Low Density CHMC, ionomycin activation, tryptase readout
[4] = Homo sapiens, Mast cell, Low Density CHMC, anti-IgE activation, tryptase readout

Structure (SMILES) | IC50 [1, 3] | IC50 [2, 4] | also measured
Nc1cc(Nc2ncc(F)c(Nc3ccc(Nc4ccccc4)c(N)c3)n2)ccc1Nc1ccccc1 [Compound R950125, N2,N4-Bis[3-amino-4-(N-phenylamino)-phenyl]-5-fluoro-2,4-pyrimidinediamine] | 6.3 µM | 1.38 µM | 
Cc1ccc(Nc2ncc(F)c(Nc3ccc(C)c(N)c3)n2)cc1N [Compound R950129, N2,N4-Bis(3-amino-4-methylphenyl)-5-fluoro-2,4-pyrimidinediamine] | > 10 µM | 0.665 µM | 
Nc1cc(Cl)cc(Nc2ccnc(Nc3cc(N)cc(Cl)c3)n2)c1 [Compound R950133, N2,N4-Bis(3-amino-5-chlorophenyl)-2,4-pyrimidinediamine] | > 10 µM | 2.2 µM | 
COC(=O)c1cc(N)cc(Nc2ncc(F)c(Nc3cc(N)cc(C(=O)OC)c3)n2)c1 [Compound R950134, N2,N4-Bis(3-amino-5-methoxycarbonylphenyl)-5-fluoro-2,4-pyrimidinediamine] | > 10 µM | 1.88 µM | 
Nc1cc(Nc2ncc(F)c(Nc3ccc([N+](=O)[O-])c(N)c3)n2)ccc1[N+](=O)[O-] [Compound R950135, N2,N4-Bis(3-amino-4-nitrophenyl)-5-fluoro-2,4-pyrimidinediamine] |  |  | IC50 ([1]; Homo sapiens, Mast cell): > 10 µM; IC50 ([2]; Homo sapiens, Mast cell): 0.85 µM
CCOc1ccc(Nc2ncc(F)c(Nc3ccc(OCC)c(N)c3)n2)cc1N [Compound R950139, N2,N4-Bis(3-amino-4-ethoxyphenyl)-5-fluoro-2,4-pyrimidinediamine] | > 10 µM | 1.38 µM | 
Nc1cc(Nc2ncc(F)c(Nc3cc(N)cc(C(F)(F)F)c3)n2)cc(C(F)(F)F)c1 [Compound R950140, N2,N4-Bis(3-amino-5-trifluoromethylphenyl)-5-fluoro-2,4-pyrimidinediamine] | > 10 µM | 2.83 µM | 
O=[N+]([O-])c1cc(Nc2ncc(F)c(Nc3ccc(F)c([N+](=O)[O-])c3)n2)ccc1F [Compound R950148, N2,N4-Bis(4-fluoro-3-nitrophenyl)-5-fluoro-2,4-pyrimidinediamine] |  |  | IC50 ([1]; Homo sapiens, Mast cell): > 10 µM; IC50 ([2]; Homo sapiens, Mast cell): 2.27 µM
O=[N+]([O-])c1cc(Nc2ncc(F)c(Nc3ccc(Cl)c([N+](=O)[O-])c3)n2)ccc1Cl [Compound R950149, N2,N4-Bis(4-chloro-3-nitrophenyl)-5-fluoro-2,4-pyrimidinediamine] |  |  | IC50 ([1]; Homo sapiens, Mast cell): > 10 µM; IC50 ([2]; Homo sapiens, Mast cell): 10 µM
O=[N+]([O-])c1cc(Nc2ccnc(Nc3ccc(Cl)c([N+](=O)[O-])c3)n2)ccc1Cl [Compound R950154, N2,N4-Bis(4-chloro-3-nitrophenyl)-2,4-pyrimidinediamine] |  |  | IC50 ([1]; Homo sapiens, Mast cell): > 10 µM; IC50 ([2]; Homo sapiens, Mast cell): 2.08 µM
Nc1cc(Nc2ncc(F)c(Nc3ccc(F)c(N)c3)n2)ccc1F [Compound R950159, N2,N4-Bis(3-amino-4-fluorophenyl)-5-fluoro-2,4-pyrimidinediamine] | > 10 µM | 0.61 µM | 
O=[N+]([O-])c1cccc(Nc2ncc(F)c(Nc3cccc([N+](=O)[O-])c3)n2)c1 [Compound R950160, N2,N4-Bis(3-nitrophenyl)-5-fluoro-2,4-pyrimidinediamine] |  |  | IC50 ([1]; Homo sapiens, Mast cell): > 10 µM; IC50 ([2]; Homo sapiens, Mast cell): 1 µM
COC(=O)c1cc2cc(Nc3ncc(F)c(Nc4cccc(N)c4)n3)ccc2o1 [Compound R950162, N4-(3-Aminophenyl)-5-fluoro-N2-(2-methoxycarbonylbenzofurane-5-yl)-2,4-pyrimidinediamine] | > 10 µM | 0.434 µM | 
Nc1cccc(Nc2nc(Nc3cccc(O)c3)ncc2F)c1 [Compound R950163, N4-(3-Aminophenyl)-5-fluoro-N2-(3-hydroxyphenyl)-2,4-pyrimidinediamine] | > 10 µM | 0.874 µM | 
CC(C)Oc1cccc(Nc2ncc(F)c(Nc3cccc(N)c3)n2)c1 [Compound R950164, N4-(3-Aminophenyl)-5-fluoro-N2-(3-isopropoxyphenyl)-2,4-pyrimidinediamine] | > 10 µM | 1.89 µM | 
CC(C)Oc1ccc(Nc2ncc(F)c(Nc3cccc(N)c3)n2)cc1 [Compound R950165, N4-(3-Aminophenyl)-5-fluoro-N2-(4-isopropoxyphenyl)-2,4-pyrimidinediamine] | > 10 µM | 1.29 µM | 
CC(C)Nc1cccc(Nc2ncc(F)c(Nc3cccc(NC(C)C)c3)n2)c1 [Compound R950166, N2,N4-Bis[3-(N-isopropyl)aminophenyl]-5-fluoro-2,4-pyrimidinediamine] | > 10 µM | 1.89 µM | 
CC(C)(C)OC(=O)C=Nc1cccc(Nc2ncc(F)c(Nc3cccc(N=CC(=O)OC(C)(C)C)c3)n2)c1 [Compound R950177, N2,N4-Bis(3-tert-butoxycarbonylmethyleneaminophenyl)-5-fluoro-2,4-pyrimidinediamine] | 8.43 µM | 2.36 µM | 

Structure (SMILES) | IC50 [1, 3] | IC50 [2, 4] | also measured
CC(C)(C)OC(=O)C=Nc1cccc(Nc2ncc(F)c(Nc3cccc(N)c3)n2)c1 [Compound R950178, N4-(3-Aminophenyl)-N2-(3-tert-butoxycarbonylmethyleneaminophenyl)-5-fluoro-2,4-pyrimidinediamine] | > 10 µM | 0.688 µM | 
CC(C)(C)OC(=O)C=Nc1cccc(Nc2nc(Nc3cccc(N)c3)ncc2F)c1 [Compound R950179, N2-(3-Aminophenyl)-N4-(3-tert-butoxycarbonylmethyleneaminophenyl)-5-fluoro-2,4-pyrimidinediamine] | > 10 µM | 0.955 µM | 
CN(C)c1cccc(Nc2ncc(F)c(Nc3cccc(N(C)C)c3)n2)c1 [Compound R950182, N2,N4-Bis[3-(dimethylamino)phenyl]-5-fluoro-2,4-pyrimidinediamine] | > 10 µM | 0.627 µM | 
CCOC(=O)C=Nc1cccc(Nc2nc(N(CC(=O)OCC)c3cccc(N=CC(=O)OCC)c3)ncc2F)c1 [Compound R950183, N2,N4-Bis(3-ethoxycarbonylmethyleneaminophenyl)-N2-(ethoxycarbonylmethyl)-5-fluoro-2,4-pyrimidinediamine] | > 10 µM | 4.8 µM | 
CCOC(=O)C=Nc1cccc(Nc2ncc(F)c(Nc3cccc(N=CC(=O)OCC)c3)n2)c1 [Compound R950184, N2,N4-Bis(3-ethoxycarbonylmethyleneaminophenyl)-5-fluoro-2,4-pyrimidinediamine] | > 10 µM | 2.22 µM | 
CCOC(=O)C=Nc1cccc(Nc2ncc(F)c(Nc3ccc4c(c3)OCCO4)n2)c1 [Compound R950186, N4-(3,4-Ethylenedioxyphenyl)-N2-(3-ethoxycarbonylmethyleneaminophenyl)-5-fluoro-2,4-pyrimidinediamine] | > 10 µM | 0.558 µM | 
CNc1ncc(F)c(Nc2ccc3c(c2)OCCO3)n1 [Compound R950189] |  |  | IC50 ([1]; Low Density CHMC, ionomycin activation, tryptase readout): > 10 µM; IC50 ([2]; Low Density CHMC, anti-IgE activation, tryptase readout): 10 µM
Fc1cnc(N=Cc2ccoc2)nc1Nc1ccc2c(c1)OCCO2 [Compound R950203, N4-(3,4-Ethylenedioxyphenyl)-N2-(3-furanylmethylene)-5-fluoro-2,4-pyrimidinediamine] | > 10 µM | 9.04 µM | 
COc1ccc(OCCNc2ncc(F)c(Nc3ccc4c(c3)OCCO4)n2)cc1 [Compound R950204, N4-(3,4-Ethylenedioxyphenyl)-5-fluoro-N2-[(4-methoxyphenyloxy)ethyl]-2,4-pyrimidinediamine] | > 10 µM | 6.29 µM | 
Fc1cnc(NCc2ccc3c(c2)CCO3)nc1Nc1ccc2c(c1)OCCO2 [Compound R950205, N2-[2,3-Dihydrobenzo[b]furan-5-ylmethyl]-N4-(3,4-ethylenedioxyphenyl)-5-fluoro-2,4-pyrimidinediamine] | > 10 µM | 9 µM | 
Fc1cnc(NCC2COc3ccccc3O2)nc1Nc1ccc2c(c1)OCCO2 (stereo not shown) [Compound R950206, N2-(2,3-Dihydro-1,4-benzodioxin-2-ylmethyl)-N4-(3,4-ethylenedioxyphenyl)-5-fluoro-2,4-pyrimidinediamine] | > 10 µM | 3.66 µM | 
OCCN(CCO)c1cccc(Nc2ncc(F)c(Nc3ccc4c(c3)OCCO4)n2)c1 [Compound R950209, N2-[3-Bis(hydroxyethyl)aminophenyl]-N4-(3,4-ethylenedioxyphenyl)-5-fluoro-2,4-pyrimidinediamine] | > 10 µM | 0.748 µM | 
Oc1cccc(Nc2nc(N=Cc3ccoc3)ncc2F)c1 [Compound R950210, N2-(3-Furylmethylene)-5-fluoro-N4-(3-hydroxyphenyl)-2,4-pyrimidinediamine] | > 10 µM | 10 µM | 
COc1ccc(OCCNNc2ncc(F)c(Nc3cccc(O)c3)n2)cc1 [Compound R950211, 5-Fluoro-N4-(3-hydroxyphenyl)-N2-(4-methoxyphenyloxyethyleneamino)-2,4-pyrimidinediamine] | > 10 µM | 10 µM | 
Oc1cccc(Nc2nc(NCc3ccc4c(c3)CCO4)ncc2F)c1 [Compound R950213, N2-[2,3-Dihydrobenzo[b]furan-5-ylmethyl]-5-fluoro-N4-(3-hydroxyphenyl)-2,4-pyrimidinediamine] | > 10 µM | > 10 µM | 
Oc1cccc(Nc2nc(NCC3COc4ccccc4O3)ncc2F)c1 (stereo not shown) [Compound R950214, N2-(2,3-Dihydro-1,4-benzodioxin-2-ylmethyl)-5-fluoro-N4-(3-hydroxyphenyl)-2,4-pyrimidinediamine] | > 10 µM | 10 µM | 
CNC(=O)C=Nc1cccc(Nc2ncc(F)c(Nc3cccc(O)c3)n2)c1 [Compound R950217, 5-Fluoro-N4-(3-hydroxyphenyl)-N2-[3-(N-methylamino)carbonylmethyleneaminophenyl]-2,4-pyrimidinediamine] | > 10 µM | 0.34 µM | 
